Measurements as given in US12325688B2, “Gingerenone A prodrugs as sensotherapeutics and methods of use” (The U.S.A., as Represented by the Secretary, Department of …, priority 2022, dated 2025).
“Also recorded” adds a separate entry of the source.

Columns and labels:
Type in all cases: cell-based, human
[1] = system: IR-induced senescent WI-38 fibroblasts; assay: MTT cell viability assay, senescent cells; conditions: for senolytic activity (selective decrease of viability of senescent cells): components at 100 μM, 6-shogaol 3.6 μM, 8-shogaol 33 μM, 6-gingerol 20 μM; for senescent cell viability: D+Q 250 nM dasatinib + 10 μM quercetin, gingerenone A 20 μM, 6-shogaol 72.4 nM
Method: Cell culture and treatments: WI-38 human diploid fibroblasts (HDFs) were cultured in Dulbecco's modified Eagle's medium (DMEM) supplemented with 10% heat-inactivated fetal bovine serum (FBS), penicillin and streptomycin, and non-essential amino acids at 37° C. in a 5% CO2 incubator. HDFs were rendered senescent by exposure to 10 Gy of ionizing radiation (IR) and then cultured for an additional ten days. Proliferating and senescent WI-38 cells were seeded in triplicate overnight at 2×10^5 cells/well (in 6 well plates) to achieve ˜-60% confluence by the next day. Cells were then treated with the extracts for times indicated. […]
MTT cell viability: The MTT assay (BioVision Milpitas, CA) was carried out following the manufacturer's protocol. Briefly, the media was gently removed from each well and 50 μl of serum-free medium+50 μl of Solution A were added to each well. The plates were incubated at 37° C. for MTT reduction into formazan for 3 h. Next, 150 μl Solution B was added to each well and the plate was covered with foil and shaken at 600 rpm for 15 min. The absorbance was measured at 590 nm using Enspire, Perkin Elmer Multimode plate reader. […]
WI-38 fibroblasts were rendered senescent by exposure to ionizing radiation (IR, 10 Gy) and cultured for an additional 10 days. […] Data represent the means and standard error from three biological replicates. The major components of ginger extract, namely 6-gingerol, 8-gingerol, 10-gingerol, 6-shogaol, 8-shogaol, gingerenone A, and zingerone, were screened for their ability to selectively decrease cell viability of senescent cells using the MTT assay (FIG. 10A).

[2] = system: senescent WI-38 fibroblasts; assay: Secreted SASP cytokines and chemokines (ELISA, multiplex, V-PLEX)
Method: Secreted protein analysis—ELISA, Luminex Multiplex and V-PLEX: Media was collected at the earliest timepoint (24 h after treatments) to avoid cell death that could interfere with the assay. The media was centrifuged at 1000×g for 5 min to remove debris. The secretion of IL-6 was measured by the Quantikine ELISA Kit (R&D systems) and the expression of pro-inflammatory cytokines and chemokines [IL-6, TNFα, CCL2 (MCP-1), IL-8, IFNβ] was also assessed by multiplex assays (customized Luminex plate, R&D) according to the manufacturer's instructions. The V-PLEX Plus Proinflammatory Panel 1 Human Kit and the Chemokine Panel 1 preparation and detection were carried out following the manufacturer's protocol (Mesoscale Diagnostics) using >80% confluency of proliferating or senescent cells on 24-well plates. Briefly, different concentrations of standards and samples were added to the plates, and they were incubated for 2 h on a microplate shaker. The plates were washed, and the corresponding detection antibody mixture was added to each well and incubated for 1 h with shaking. The plates were washed twice then Read buffer was added to each well. The plates were read on the MESO Quickplex SQ 120 (MSD, Rockville, MD) and protein concentrations were determined using MSD Discovery workbench 4.0. The effects of gingerenone A, 6-shogaol and D+Q on cytokines and chemokines that are known to be part of the senescence-associated secretory phenotype (SASP) were tested. WI-38 fibroblasts were rendered senescent by exposure to ionizing radiation (IR, 10 Gy) and cultured for an additional 10 days. Cells were then treated with gingerenone A (20 μM) and 6-shogaol (72.4 nM) and incubated for 24 h. CCL-2 (MCP-1) and IL-10 were measured using the Bio-plex (Multiplex); IL6 was measured using Quantikine IL-6 (R&D) (FIG. 12A). Data were normalized to cell number/total protein content. Data in graphs represent the means and standard error from three biological replicates. […] Ratios of cleaved pro-caspase 3 to total caspase 3, normalized to ACTB levels, are shown as relative to control proliferating cells. Cytokines (FIG. 13A) and chemokines (FIG. 13B) were measured using the V-plex panel (MSD) after treatment for 24 h with the indicated drugs. Relative secretion was measured as pg/ml vs control normalized on TE. Data in the graphs represent the means and standard error from three biological replicates.

[3] = system: proliferating WI-38 fibroblasts; assay: MTT cell viability assay, proliferating cells; conditions: 48 h; D+Q 250 nM dasatinib + 10 μM quercetin, gingerenone A 20 μM, 6-shogaol 72.4 nM
Method: Cell culture and treatments: WI-38 human diploid fibroblasts (HDFs) were cultured in Dulbecco's modified Eagle's medium (DMEM) supplemented with 10% heat-inactivated fetal bovine serum (FBS), penicillin and streptomycin, and non-essential amino acids at 37° C. in a 5% CO2 incubator. HDFs were rendered senescent by exposure to 10 Gy of ionizing radiation (IR) and then cultured for an additional ten days. Proliferating and senescent WI-38 cells were seeded in triplicate overnight at 2×10^5 cells/well (in 6 well plates) to achieve ˜-60% confluence by the next day. Cells were then treated with the extracts for times indicated.
In 24-well plates, cells were treated with multiple dilutions (1:200 and 1:500) of Harpagophytum procumbens (Devil's Claw) (herb to menstruum ratio, 1:3), Uncaria tomentosa (Cat's Claw) (herb to menstruum ratio, 1:3), Zingiber officinale Rosc. […]
MTT cell viability: The MTT assay (BioVision Milpitas, CA) was carried out following the manufacturer's protocol. […] The absorbance was measured at 590 nm using Enspire, Perkin Elmer Multimode plate reader.
Four plant extracts were screened for senolytic activity, including extracts from Harpagophytum procumbens (Devil's Claw), Uncaria tomentosa (Cat's Claw), Zingiber officinale Rosc. […] In FIG. 8B, the impact on ginger extract on proliferating and senescent cells on cell survival was assessed by the MTT cell viability assay.

[4] = system: proliferating and senescent WI-38 fibroblasts; assay: Western blot of apoptotic pathway proteins; conditions: 48 h; for expression of anti-apoptotic protein Bcl-XL / levels of pro-apoptotic protein cleaved caspase-3: senescent cells
Method: Protein analysis: Cells were lysed in RIPA lysis buffer (Pierce, ThermoFisher) containing protease and phosphatase inhibitors (Roche) and incubated on ice for 10 min. The lysates were then sonicated for 5 min and centrifuged for 10 min at 4° C. to remove the insoluble fraction. The remaining supernatant was the whole-cell lysate. Lysates were separated by SDS-polyacrylamide gel electrophoresis (SDS-PAGE) and transferred onto nitrocellulose membranes (Biorad). Incubations with primary antibodies recognizing p21, p53, Beta-Actin (ACTB) (Santa Cruz Biotechnology), as well as caspase-3 (Abcam) and Bcl-XL (Cell Signaling) were followed by incubations with the appropriate secondary antibodies conjugated with horseradish peroxidase (GE Healthcare). Signals were developed using Enhanced Chemiluminescence (ECL) and acquired by using the ChemiDoc MP Imaging System (BioRad).
The effects of gingerenone A, 6-shogaol and D+Q on cytokines and chemokines that are known to be part of the senescence-associated secretory phenotype (SASP) were tested. WI-38 fibroblasts were rendered senescent by exposure to ionizing radiation (IR, 10 Gy) and cultured for an additional 10 days. Cells were then treated with gingerenone A (20 μM) and 6-shogaol (72.4 nM) and incubated for 24 h. CCL-2 (MCP-1) and IL-10 were measured using the Bio-plex (Multiplex); IL6 was measured using Quantikine IL-6 (R&D) (FIG. 12A). Data were normalized to cell number/total protein content. Data in graphs represent the means and standard error from three biological replicates. […] Ratios of cleaved pro-caspase 3 to total caspase 3, normalized to ACTB levels, are shown as relative to control proliferating cells. Cytokines (FIG. 13A) and chemokines (FIG. 13B) were measured using the V-plex panel (MSD) after treatment for 24 h with the indicated drugs. Relative secretion was measured as pg/ml vs control normalized on TE. Data in the graphs represent the means and standard error from three biological replicates.
To determine whether gingerenone A and 6-shogaol might influence the apoptotic pathway, their effect on the levels of cleaved caspase-3 (pro-apoptotic marker), and Bcl-XL (anti-apoptotic protein) (FIG. 12B) was tested. […] However, D+Q, gingerenone A, and 6-shogaol all reduced the expression of the anti-apoptotic protein Bcl-XL in senescent cells (FIG. 12B, right).

## CCCCCCC[C@H](O)CC(=O)CCc1ccc(O)c(OC)c1 [8-gingerol]
[1]; 72 h
  senolytic activity (selective decrease of viability of senescent cells): only 6-shogaol and gingerenone A displayed senolytic activity

## CCCCC/C=C/C(=O)CCc1ccc(O)c(OC)c1 [6-shogaol]
[2]; 24 h, 72.4 nM
  changes in any of the cytokines and chemokines measured: did not induce major changes
[3]
  effect on proliferating (non-irradiated) cells: significant increase
[1]; 48 h
  senescent cell viability: moderate degree of cell death
[1]; 72 h
  senolytic activity (selective decrease of viability of senescent cells): displayed senolytic activity
[4]
  expression of anti-apoptotic protein Bcl-XL: reduced
  levels of pro-apoptotic protein cleaved caspase-3: increase

## COc1cc(CCC(C)=O)ccc1O [zingerone]
[1]; 72 h
  senolytic activity (selective decrease of viability of senescent cells): only 6-shogaol and gingerenone A displayed senolytic activity

## CCCCCCC/C=C/C(=O)CCc1ccc(O)c(OC)c1 [8-shogaol]
[1]; 72 h
  senolytic activity (selective decrease of viability of senescent cells): only 6-shogaol and gingerenone A displayed senolytic activity

## CCCCC[C@H](O)CC(=O)CCc1ccc(O)c(OC)c1 [6-gingerol]
[1]; 72 h
  senolytic activity (selective decrease of viability of senescent cells): only 6-shogaol and gingerenone A displayed senolytic activity

## COc1cc(CC/C=C/C(=O)CCc2ccc(O)c(OC)c2)ccc1O [gingerenone A, Gingerenone A]
[2]; 24 h, FIG. 13A
  level of anti-inflammatory cytokine IL-13: increased
  level of pro-inflammatory cytokine IL-8: increased
[2]; 24 h, V-plex, FIG. 13A
  level of IL-10: unchanged
  level of IL-10, listed with IL-8 as pro-inflammatory cytokine: increased
[2]; 24 h, V-plex, FIG. 13B
  secreted level of interferon γ-induced protein 10 (IP-10): reduced
[2]; 24 h, multiplex ELISA (Bio-plex), FIG. 12A
  level of anti-inflammatory cytokine IL-10: increase
[2]; 24 h, gingerenone A 20 μM, D+Q
  secreted level of CCL2 (MCP-1): reduced
  secreted level of IL-6: reduced
[2]; senescent cells
  secretion of pro-inflammatory SASP cytokine IL-1B: increase
[3]
  effect on proliferating (non-irradiated) cells: did not show any significant effect
[1]; 20 μM, 48 h
  senescent cell viability relative to proliferating cells: significant decrease; also recorded: significantly decreased
[1]; 48 h, 20 μM, compared to D+Q
  selectivity for senescent over proliferating cells: higher selectivity compared to D+Q
[1]; 48 h
  senescent cell viability: significantly decreased
[1]; 72 h
  senolytic activity (selective decrease of viability of senescent cells): displayed senolytic activity
[1]; Homo sapiens, WI-38, light or radiation study, dose response 2.5-100 μM, 72 h, 10 days post-irradiation
  IC50: 19.6 ± 2.1 µM
[4]; proliferating and senescent cells
  p53 levels: did not increase
[4]
  expression of anti-apoptotic protein Bcl-XL: reduced
  levels of pro-apoptotic protein cleaved caspase-3: increase

## CCCCCCCCC[C@H](O)CC(=O)CCc1ccc(O)c(OC)c1 [10-gingerol]
[1]; 72 h
  senolytic activity (selective decrease of viability of senescent cells): only 6-shogaol and gingerenone A displayed senolytic activity
